Reference: ChEMBL document CHEMBL1201862, “PubChem BioAssay data set” (2004)
Several values for one entry are separate records, joined by “and”; a condition that tells them apart may be missing. Equal entries are not always repeated.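 Each compound was tested at five concentrations against cells in 96-well plates for 48 hours. At the GI50, growth is halved.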 Activity calls are given as the source filed them. Rule as the data show it: active = GI50 up to about 1.1 µM and inactive = higher.

What was measured:
Experiment in all cases: NCI-60 cell line screen, 48 h
786-0 = test system: 786-0
A498 = test system: A498
A549 = test system: A549
ACHN = test system: ACHN
CAKI-1 = test system: CAKI-1
CCRF-CEM = test system: CCRF-CEM
COLO 205 = test system: COLO 205
DU-145 = test system: DU-145
EKVX = test system: EKVX
HCC 2998 = test system: HCC 2998
HCT-116 = test system: HCT-116
HCT-15 = test system: HCT-15
HL-60 = test system: HL-60
HOP-62 = test system: HOP-62
HOP-92 = test system: HOP-92
HT-29 = test system: HT-29
Hs-578T = test system: Hs-578T
IGROV-1 = test system: IGROV-1
K562 = test system: K562
KM12 = test system: KM12
LOX IMVI = test system: LOX IMVI
M14 = test system: M14
MCF7 = test system: MCF7
MDA-MB-231 = test system: MDA-MB-231
MDA-MB-435 = test system: MDA-MB-435
MDA-N = test system: MDA-N
MOLT-4 = test system: MOLT-4
Malme-3M = test system: Malme-3M
NCI-H226 = test system: NCI-H226
NCI-H23 = test system: NCI-H23
NCI-H460 = test system: NCI-H460
NCI-H522 = test system: NCI-H522
NCI/ADR-RES = test system: NCI/ADR-RES
OVCAR-3 = test system: OVCAR-3
OVCAR-4 = test system: OVCAR-4
OVCAR-5 = test system: OVCAR-5
OVCAR-8 = test system: OVCAR-8
PC-3 = test system: PC-3
RPMI-8226 = test system: RPMI-8226
RXF 393 = test system: RXF 393
SF-268 = test system: SF-268
SF-295 = test system: SF-295
SF-539 = test system: SF-539
SK-MEL-28 = test system: SK-MEL-28
SK-MEL-2 = test system: SK-MEL-2
SK-MEL-5 = test system: SK-MEL-5
SK-OV-3 = test system: SK-OV-3
SN12C = test system: SN12C
SNB-19 = test system: SNB-19
SNB-75 = test system: SNB-75
SR = test system: SR
SW-620 = test system: SW-620
T47D = test system: T47D
TK-10 = test system: TK-10
U-251 = test system: U-251
UACC-257 = test system: UACC-257
UO-31 = test system: UO-31
BT-549 = test system: BT-549
UACC-62 = test system: UACC-62

Measured: GI50

Cc1ccc(S(=O)(=O)N/C(=C\C=C\c2ccccc2)C(=O)C(C)(C)C)cc1
> 100 µM: HCT-15
active: RPMI-8226 0.492 µM
inactive: 786-0 27.5 µM | A498 89.5 µM | A549 46.5 µM | ACHN 58.5 µM | CAKI-1 > 100 µM | CCRF-CEM > 100 µM | COLO 205 > 100 µM | DU-145 > 100 µM | EKVX > 100 µM | HCC 2998 > 100 µM | HCT-116 > 100 µM | HL-60 > 100 µM | HOP-62 19.5 µM | HOP-92 22.7 µM | HT-29 > 100 µM | Hs-578T 35.1 µM | IGROV-1 50.5 µM | K562 > 100 µM | KM12 > 100 µM | LOX IMVI > 100 µM | M14 > 100 µM | MCF7 73.1 µM | MDA-MB-231 29.9 µM | MDA-MB-435 > 100 µM | MDA-N > 100 µM | MOLT-4 > 100 µM | Malme-3M > 100 µM | NCI-H226 > 100 µM | NCI-H23 59.4 µM | NCI-H460 > 100 µM | NCI-H522 59 µM | NCI/ADR-RES 42.3 µM | OVCAR-3 > 100 µM | OVCAR-4 35.2 µM | OVCAR-5 > 100 µM | OVCAR-8 51.4 µM | PC-3 75.2 µM | RXF 393 37.8 µM | SF-268 46.2 µM | SF-295 75 µM | SF-539 37.9 µM | SK-MEL-28 > 100 µM | SK-MEL-2 > 100 µM | SK-MEL-5 56 µM | SK-OV-3 38.6 µM | SN12C > 100 µM | SNB-19 55.5 µM | SNB-75 56.2 µM | SR > 100 µM | SW-620 > 100 µM | T47D 85.1 µM | TK-10 > 100 µM | U-251 63.1 µM | UACC-257 45.5 µM | UO-31 > 100 µM

CCOC(=O)c1c(-c2ccc(OC)c(O)c2)c(C#N)c(=S)n(C2OC(COC(C)=O)C(OC(C)=O)C(OC(C)=O)C2OC(C)=O)c1-c1ccccc1 (configuration not stated)
inactive: A498 > 100 µM | A549 51.9 µM | BT-549 28.8 µM | Malme-3M 32.4 µM | NCI-H226 > 100 µM | NCI-H460 67.1 µM and 34 µM | NCI-H522 21.4 µM | OVCAR-5 > 100 µM | OVCAR-8 > 100 µM | RXF 393 50.1 µM | SF-295 52.8 µM | SNB-19 > 100 µM and 83.2 µM | SR > 100 µM and 60.3 µM | SW-620 59.7 µM | U-251 90.4 µM

Cc1ccc(C)n1-c1ccccc1C1C=Cn2c(=O)oc3c(OC(C)C)c(OC(C)C)c(O)c1c32 (configuration not stated)
15.7 µM: HCT-15
inactive: 786-0 37.3 µM | A498 43.8 µM | A549 16.5 µM | ACHN 33.3 µM | BT-549 43.5 µM | CAKI-1 22 µM | CCRF-CEM 18 µM | COLO 205 13.9 µM | DU-145 90.4 µM | EKVX 23.1 µM | HCC 2998 8.57 µM | HCT-116 8.26 µM | HL-60 8.75 µM | HOP-62 73.5 µM | HOP-92 24.9 µM | HT-29 18.2 µM | Hs-578T 56 µM | IGROV-1 54 µM | K562 4.67 µM | KM12 8.11 µM | LOX IMVI 14.2 µM | M14 22.9 µM | MCF7 16.6 µM | MDA-MB-231 5.13 µM | MDA-MB-435 6.1 µM | MOLT-4 6.84 µM | Malme-3M 33.7 µM | NCI-H226 15.8 µM | NCI-H23 13.3 µM | NCI-H460 22.3 µM | NCI-H522 7.06 µM | NCI/ADR-RES 27.4 µM | OVCAR-3 27.5 µM | OVCAR-4 32.6 µM | OVCAR-5 > 100 µM | OVCAR-8 49.1 µM | PC-3 5.11 µM | RPMI-8226 4.9 µM | RXF 393 7.78 µM | SF-268 43.8 µM | SF-295 33.3 µM | SF-539 > 100 µM | SK-MEL-28 28.6 µM | SK-MEL-2 7.33 µM | SK-MEL-5 14.4 µM | SK-OV-3 > 100 µM | SN12C 76.6 µM | SNB-19 > 100 µM | SNB-75 28.1 µM | SW-620 11.4 µM | TK-10 55.2 µM | U-251 25.8 µM | UACC-257 17.1 µM | UACC-62 22.8 µM | UO-31 12.7 µM

O=NN1CCCS1(=O)=O
> 100 µM: HCT-15
inactive: 786-0 > 100 µM | A498 > 100 µM | A549 > 100 µM | ACHN > 100 µM | BT-549 > 100 µM | CAKI-1 > 100 µM | CCRF-CEM > 100 µM | COLO 205 > 100 µM | DU-145 > 100 µM | EKVX > 100 µM | HCC 2998 > 100 µM | HCT-116 > 100 µM | HL-60 > 100 µM | HOP-62 > 100 µM | HT-29 > 100 µM | Hs-578T > 100 µM | IGROV-1 > 100 µM | K562 > 100 µM | KM12 > 100 µM | LOX IMVI > 100 µM | M14 > 100 µM | MCF7 > 100 µM | MDA-MB-231 > 100 µM | MOLT-4 > 100 µM | Malme-3M > 100 µM | NCI-H226 > 100 µM | NCI-H23 > 100 µM | NCI-H460 > 100 µM | NCI/ADR-RES > 100 µM | OVCAR-3 > 100 µM | OVCAR-4 > 100 µM | OVCAR-5 > 100 µM | OVCAR-8 > 100 µM | PC-3 > 100 µM | RPMI-8226 > 100 µM | RXF 393 > 100 µM | SF-268 > 100 µM | SF-295 > 100 µM | SF-539 > 100 µM | SK-MEL-28 > 100 µM | SK-MEL-5 > 100 µM | SK-OV-3 > 100 µM | SN12C > 100 µM | SNB-19 > 100 µM | SNB-75 12.6 µM | SR > 100 µM | SW-620 > 100 µM | T47D > 100 µM | TK-10 > 100 µM | U-251 > 100 µM | UACC-257 > 100 µM | UACC-62 > 100 µM | UO-31 95.1 µM
